Data reported in patent US20150284375A1 (AJINOMOTO CO., INC., priority 2012, published 2015).

Target: T1, human TRPA1 (Homo sapiens, UniProt O75762)
T1 construct: expressed in transfected cells; host or cells: Human embryonic kidney-derived 293T cells, transiently transfected with the pcDNA3.1/zeo(+) human TRPA1 plasmid
Test: Measurement of TRPA1 antagonist activity (intracellular calcium increase, FLIPR, allylisothiocyanate stimulation)
Assay type: cell-based
Settings: 293T cells transfected with human TRPA1; allylisothiocyanate 20 μM; concentration for 50% inhibitory rate; read-out: antagonism hTRPA1
Method in brief: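 IC50 derives from a sigmoid fit of inhibition of the 5-min FLIPR fluorescence change evoked by 20 μM allylisothiocyanate, normalized between agonist and buffer responses. Test substance, diluted in HBSS/20 mM HEPES pH 7.2 plus 0.1% BSA, was applied 10 min beforehand at room temperature to Calcium4-loaded 293T cells transiently expressing human TRPA1.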

T1 sequence (O75762 whole entry): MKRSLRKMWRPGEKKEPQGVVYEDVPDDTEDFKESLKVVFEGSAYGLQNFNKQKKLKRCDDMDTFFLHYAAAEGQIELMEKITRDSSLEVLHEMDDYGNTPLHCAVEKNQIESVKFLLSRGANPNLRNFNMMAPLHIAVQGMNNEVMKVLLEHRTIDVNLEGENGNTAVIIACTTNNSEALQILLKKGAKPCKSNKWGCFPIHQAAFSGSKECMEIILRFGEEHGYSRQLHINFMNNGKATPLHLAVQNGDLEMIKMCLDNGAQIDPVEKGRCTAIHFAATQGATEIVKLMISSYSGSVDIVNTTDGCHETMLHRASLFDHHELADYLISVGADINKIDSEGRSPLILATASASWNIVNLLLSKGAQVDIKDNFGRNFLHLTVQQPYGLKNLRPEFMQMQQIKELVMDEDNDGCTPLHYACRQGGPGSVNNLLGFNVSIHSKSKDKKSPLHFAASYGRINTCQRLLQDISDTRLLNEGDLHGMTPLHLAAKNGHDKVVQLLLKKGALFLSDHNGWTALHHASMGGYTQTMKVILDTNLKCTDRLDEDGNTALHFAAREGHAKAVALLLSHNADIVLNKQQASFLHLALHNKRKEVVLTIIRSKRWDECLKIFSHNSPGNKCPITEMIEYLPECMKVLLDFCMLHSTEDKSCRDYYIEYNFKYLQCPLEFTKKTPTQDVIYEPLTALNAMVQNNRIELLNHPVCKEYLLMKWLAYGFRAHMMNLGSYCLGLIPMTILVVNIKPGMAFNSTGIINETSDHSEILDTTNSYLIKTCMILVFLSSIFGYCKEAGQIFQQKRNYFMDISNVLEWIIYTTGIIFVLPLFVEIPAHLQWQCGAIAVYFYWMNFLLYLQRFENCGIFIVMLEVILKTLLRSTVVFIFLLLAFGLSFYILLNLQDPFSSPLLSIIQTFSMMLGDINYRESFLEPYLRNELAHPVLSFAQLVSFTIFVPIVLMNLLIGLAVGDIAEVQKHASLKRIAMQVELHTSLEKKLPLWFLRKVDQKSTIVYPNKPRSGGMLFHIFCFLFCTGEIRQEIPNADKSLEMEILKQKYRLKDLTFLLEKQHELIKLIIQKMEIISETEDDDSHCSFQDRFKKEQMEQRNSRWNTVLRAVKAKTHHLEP

| SMILES | IC50 |
| --- | --- |
| CN(C)c1cccc(OCc2ccc(CNC(=O)[C@@H]3CCCN3S(=O)(=O)c3ccc(Cl)s3)cc2)c1 [Example 59, (2S)-1-(5-chlorothiophene-2-sulfonyl)-N-((4-{[3-(dimethyl-amino)phenoxy]methyl}phenyl)methyl)pyrrolidine-2-carboxamide] | 838 nM |
| O=C(NCc1ccc(COc2ccccc2C(F)(F)F)cc1)[C@@H]1CCCN1S(=O)(=O)c1ccc(Cl)s1 [Example 60, (2S)-1-(5-chlorothiophene-2-sulfonyl)-N-((4-{[2-(trifluoro-methyl)phenoxy]methyl}phenyl)methyl)pyrrolidine-2-carboxamide] | 420 nM |
| Cc1ccccc1OCc1ccc(CNC(=O)[C@@H]2CCCN2S(=O)(=O)c2ccc(Cl)s2)cc1 [Example 61, (2S)-1-(5-chlorothiophene-2-sulfonyl)-N-({4-[(2-methyl-phenoxy)methyl]phenyl}methyl)pyrrolidine-2-carboxamide] | 190 nM |
| COc1ccccc1OCc1ccc(CNC(=O)[C@@H]2CCCN2S(=O)(=O)c2ccc(Cl)s2)cc1 [Example 62, (2S)-1-(5-chlorothiophene-2-sulfonyl)-N-({4-[(2-methoxy-phenoxy)methyl]phenyl}methyl)pyrrolidine-2-carboxamide] | 1100 nM |
| O=C(NCc1ccc(COc2ccccc2F)cc1)[C@@H]1CCCN1S(=O)(=O)c1ccc(Cl)s1 [Example 63, (2S)-1-(5-chlorothiophene-2-sulfonyl)-N-({4-[(2-fluoro-phenoxy)methyl]phenyl}methyl)pyrrolidine-2-carboxamide] | 440 nM |
| O=C(NCc1ccc(COc2ccccc2Cl)cc1)[C@@H]1CCCN1S(=O)(=O)c1ccc(Cl)s1 [Example 64, (2S)-N-({4-[(2-chlorophenoxy)methyl]phenyl}methyl)-1-(5-chlorothiophene-2-sulfonyl)pyrrolidine-2-carboxamide] | 480 nM |
| O=C(NCc1ccc(COc2c(F)cccc2F)cc1)[C@@H]1CCCN1S(=O)(=O)c1ccc(Cl)s1 [Example 65, (2S)-1-(5-chlorothiophene-2-sulfonyl)-N-({4-[(2,6-difluoro-phenoxy)methyl]phenyl}methyl)pyrrolidine-2-carboxamide] | 130 nM |
| COC(=O)c1ccccc1OCc1ccc(CNC(=O)[C@@H]2CCCN2S(=O)(=O)c2ccc(Cl)s2)cc1 [Example 66, methyl 2-((4-({[(2S)-1-(5-chlorothiophene-2-sulfonyl)pyrrolidine-2-carbonyl]amino}methyl)phenyl)methoxy)benzoate] | 780 nM |
| O=C(NCc1ccc(COc2cncc(Cl)c2)cc1)[C@@H]1CCCN1S(=O)(=O)c1ccc(Cl)s1 [Example 67, (2S)-N-({4-[(5-chloro-3-pyridyl)oxymethyl]phenyl}methyl)-1-(5-chlorothiophene-2-sulfonyl)pyrrolidine-2-carboxamide] | 730 nM |
| O=C(NCc1ccc(COc2ccc3ncccc3c2)cc1)[C@@H]1CCCN1S(=O)(=O)c1ccc(Cl)s1 [Example 68, (2S)-1-(5-chlorothiophene-2-sulfonyl)-N-{[4-(6-quinolyloxy-methyl)phenyl]methyl}pyrrolidine-2-carboxamide] | 4400 nM |
| O=C(NCc1ccc(COc2cc3ccccc3cn2)cc1)[C@@H]1CCCN1S(=O)(=O)c1ccc(Cl)s1 [Example 69] | 1800 nM |
| O=C(NCc1cccc(COc2ccccc2)c1)[C@@H]1CCCN1S(=O)(=O)c1ccc(Cl)s1 [Example 70] | 340 nM |
| O=C(NCc1cccc(COc2ccc(C(F)(F)F)cc2)c1)[C@@H]1CCCN1S(=O)(=O)c1ccc(Cl)s1 [Example 71] | 270 nM |
| CC(NC(=O)[C@@H]1CCCN1S(=O)(=O)c1ccc(Cl)s1)c1ccc(COc2ccccc2)cc1 (stereo partly shown) [Example 72] | 3800 nM |
| O=C(NCc1ccc(COc2ccccc2)cc1Cl)[C@@H]1CCCN1S(=O)(=O)c1ccc(Cl)s1 [Example 73] | 150 nM |
| O=C(NCc1ccc(COc2ccc(C(F)(F)F)cc2)cc1Cl)[C@@H]1CCCN1S(=O)(=O)c1ccc(Cl)s1 [Example 74] | 180 nM |
| O=C(NCc1ccc(COc2cccc(C(F)(F)F)c2)cc1Cl)[C@@H]1CCCN1S(=O)(=O)c1ccc(Cl)s1 [Example 75] | 140 nM |
| O=C(NCc1ccc(COc2ccccc2)cc1C(F)(F)F)[C@@H]1CCCN1S(=O)(=O)c1ccc(Cl)s1 [Example 76] | 160 nM |
| O=C(NCc1ccc(COc2ccc(C(F)(F)F)cc2)cc1C(F)(F)F)[C@@H]1CCCN1S(=O)(=O)c1ccc(Cl)s1 [Example 77] | 100 nM |
| O=C(NCc1ccc(COc2cccc(C(F)(F)F)c2)cc1C(F)(F)F)[C@@H]1CCCN1S(=O)(=O)c1ccc(Cl)s1 [Example 78] | 120 nM |
| O=C(NCc1ccccc1COc1ccccc1)[C@@H]1CCCN1S(=O)(=O)c1ccc(Cl)s1 [Example 79] | 2200 nM |
| O=C(NCc1ccccc1COc1ccc(C(F)(F)F)cc1)[C@@H]1CCCN1S(=O)(=O)c1ccc(Cl)s1 [Example 80] | 270 nM |
| O=C(NCc1ccccc1COc1cccc(C(F)(F)F)c1)[C@@H]1CCCN1S(=O)(=O)c1ccc(Cl)s1 [Example 81] | 580 nM |
| O=C(NCc1ccc(COc2ccccc2)cc1)[C@@H]1CCCN1S(=O)(=O)c1ccc(F)cc1 [Example 82, (2S)-1-[(4-fluorophenyl)sulfonyl]-N-{[4-(phenoxymethyl)phenyl]methyl}pyrrolidine-2-carboxamide] | 1200 nM |
| O=C(NCc1ccc(COc2ccccc2)cc1)[C@@H]1C=CCN1S(=O)(=O)c1ccc(Cl)s1 [Example 83] | 430 nM |
| O=C(NCc1ccc(COc2ccccc2)cc1)[C@@H]1CCCN1S(=O)(=O)c1ccc(F)c(F)c1 [Example 84] | 1100 nM |
| O=C(NCc1ccc(COc2ccccc2)cc1)[C@@H]1CCCN1S(=O)(=O)c1cccc(F)c1 [Example 85] | 3500 nM |
| O=C(NCc1ccc(COc2ccccc2)cc1)[C@@H]1CCCN1S(=O)(=O)c1cccs1 [Example 86] | 7000 nM |

| SMILES | IC50 |
| --- | --- |
| O=C(NCc1ccc(COc2ccccc2)cc1)[C@@H]1CC(O)CN1S(=O)(=O)c1ccc(Cl)s1 (stereo partly shown) [Example 87] | 7700 nM |
| O=C(NCc1nc(COc2ccc(C(F)(F)F)cc2)cs1)[C@@H]1CCCN1S(=O)(=O)c1ccc(Cl)s1 [Example 88] | 370 nM |
| O=C(NCc1nc(COc2cccc(C(F)(F)F)c2)cs1)[C@@H]1CCCN1S(=O)(=O)c1ccc(Cl)s1 [Example 89] | 340 nM |
| O=C(NCc1nc(COc2ccccc2C(F)(F)F)cs1)[C@@H]1CCCN1S(=O)(=O)c1ccc(Cl)s1 [Example 90] | 150 nM |
| O=C(NCc1ccc(OCc2ccccc2)cc1)[C@@H]1CCCN1S(=O)(=O)c1ccc(Cl)s1 [Example 91] | 94 nM |
| O=C(NCc1ccc(OCc2ccc(C(F)(F)F)cc2)cc1)[C@@H]1CCCN1S(=O)(=O)c1ccc(Cl)s1 [Example 92] | 110 nM |
| O=C(NCc1ccc(OCc2cccc(C(F)(F)F)c2)cc1)[C@@H]1CCCN1S(=O)(=O)c1ccc(Cl)s1 [Example 93] | 4200 nM |
| O=C(NCc1ccc(OCc2ccccc2C(F)(F)F)cc1)[C@@H]1CCCN1S(=O)(=O)c1ccc(Cl)s1 [Example 94] | 370 nM |
| O=C(NCc1cccc(OCc2ccccc2)c1)[C@@H]1CCCN1S(=O)(=O)c1ccc(Cl)s1 [Example 95] | 22 nM |
| O=C(NCc1cccc(OCc2ccc(C(F)(F)F)cc2)c1)[C@@H]1CCCN1S(=O)(=O)c1ccc(Cl)s1 [Example 96] | 19 nM |
| O=C(NCc1cccc(OCc2ccc(OC(F)(F)F)cc2)c1)[C@@H]1CCCN1S(=O)(=O)c1ccc(Cl)s1 [Example 97] | 30 nM |
| O=C(NCc1cccc(OCc2ccc(Cl)cc2)c1)[C@@H]1CCCN1S(=O)(=O)c1ccc(Cl)s1 [Example 98] | 10 nM |
| O=C(NCc1cccc(OCc2ccc(F)cc2)c1)[C@@H]1CCCN1S(=O)(=O)c1ccc(Cl)s1 [Example 99] | 12 nM |
| O=C(NCc1cccc(OCc2cccc(C(F)(F)F)c2)c1)[C@@H]1CCCN1S(=O)(=O)c1ccc(Cl)s1 [Example 100] | 8.9 nM |
| O=C(NCc1cccc(OCc2cccc(OC(F)(F)F)c2)c1)[C@@H]1CCCN1S(=O)(=O)c1ccc(Cl)s1 [Example 101] | 16 nM |
| O=C(NCc1cccc(OCc2cccc(Cl)c2)c1)[C@@H]1CCCN1S(=O)(=O)c1ccc(Cl)s1 [Example 102] | 15 nM |
| O=C(NCc1cccc(OCc2cccc(F)c2)c1)[C@@H]1CCCN1S(=O)(=O)c1ccc(Cl)s1 [Example 103] | 15 nM |
| O=C(NCc1cccc(OCc2ccccc2C(F)(F)F)c1)[C@@H]1CCCN1S(=O)(=O)c1ccc(Cl)s1 [Example 104] | 80 nM |
| O=C(NCc1ccc(F)c(OCc2ccc(C(F)(F)F)cc2)c1F)[C@@H]1CCCN1S(=O)(=O)c1ccc(Cl)s1 [Example 105] | 130 nM |
| O=C(NCc1c(F)ccc(OCc2ccc(C(F)(F)F)cc2)c1Cl)[C@@H]1CCCN1S(=O)(=O)c1ccc(Cl)s1 [Example 106] | 1200 nM |
| O=C(NCc1cccc(OCc2ccccc2)c1)[C@@H]1C=CCN1S(=O)(=O)c1ccc(Cl)s1 [Example 107, (2S)—N-[(3-benzyloxyphenyl)methyl]-1-(5-chlorothiophene-2-sulfonyl)-2,5-dihydropyrrole-2-carboxamide] | 14 nM |
| O=C(NCc1cccc(OCc2ccccc2)c1)[C@@H]1CCCN1S(=O)(=O)c1ccc(F)cc1 [Example 108] | 66 nM |
| O=C(NCc1cccc(OCc2ccccc2)c1)[C@@H]1CCN1S(=O)(=O)c1ccc(Cl)s1 [Example 109] | 120 nM |
| O=C(NCc1cccc(OCc2ccccc2)c1)[C@@H]1CCCN1S(=O)(=O)c1ccc(F)c(F)c1 [Example 110] | 76 nM |
| O=C(NCc1cccc(OCc2ccc(C(F)(F)F)cc2)c1)[C@@H]1C=CCN1S(=O)(=O)c1ccc(F)cc1 [Example 111] | 24 nM |
| O=C(NCc1cccc(OCc2ccc(C(F)(F)F)cc2)c1)[C@@H]1CCN1S(=O)(=O)c1ccc(F)cc1 [Example 112] | 230 nM |
| O=C(NCc1cccc(OCc2ccc(C(F)(F)F)cc2)c1)[C@@H]1CCCN1S(=O)(=O)c1ccc(Cl)cc1 [Example 113] | 71 nM |
